According to patent publication US9695155B2, “Herbicidal substituted pyrimidinyloxy benzene compounds” (E. I. DU PONT DE NEMOURS AND COMPANY, priority 2013, dated 2017):

Tests used:
giant foxtail [1] = assay: Test C postemergence; assay type: in vivo, Setaria faberii; settings: Setaria faberi, post-emergence
Summary of the method: (§1)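 Visual injury score versus untreated controls, 0 = no effect, 100 = complete control, taken 13 to 15 days after treatment in the greenhouse. Pre-emergence pots held loam/sand; post-emergence plants grew in sphagnum peat/vermiculite mix and were sprayed at the 1- to 4-leaf stage.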

blackgrass = assay: Test C postemergence; assay type: in vivo, Alopecurus myosuroides; settings: Alopecurus myosuroides, post-emergence
Summary of the method: as §1

corn [2] = assay: Test C postemergence; assay type: in vivo, Zea mays; settings: Zea mays, post-emergence
Summary of the method: as §1

giant foxtail [3] = assay: Test A postemergence; assay type: in vivo, Setaria faberii; settings: Setaria faberi, post-emergence, 240 h, 0 to 100 scale where 0 is no effect and 100 is complete control
Summary of the method: (§2)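 Visual 0–100 rating (100 = complete control) taken about 10 d post-treatment relative to untreated checks. Preemergence: directed soil spray on sown loam/sand pots. Postemergence: seedlings 2–10 cm, 1–2 leaf. Non-phytotoxic solvent formulation with surfactant.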

lambsquarters = assay: Test C preemergence; assay type: in vivo, Chenopodium album; settings: Chenopodium album, pre-emergence, preemergence, read-out: Lambsquarters plant response rating
Summary of the method: as §1

large (Lg) crabgrass = assay: Test C preemergence; assay type: in vivo, Digitaria sanguinalis; settings: Digitaria sanguinalis, pre-emergence
Summary of the method: as §1

kochia = assay: Test C postemergence; assay type: in vivo, Kochia scoparia; settings: Bassia scoparia, post-emergence
Summary of the method: as §1

barnyardgrass = assay: Test C postemergence; assay type: in vivo, Echinochloa crus-galli; settings: Echinochloa crus-galli, post-emergence
Summary of the method: as §1

yellow nutsedge = assay: Test C postemergence; assay type: in vivo, Cyperus esculentus
Summary of the method: as §1

pigweed = assay: Test C preemergence; assay type: in vivo, Amaranthus retroflexus; settings: Amaranthus retroflexus, pre-emergence, preemergence, read-out: Pigweed plant response rating
Summary of the method: as §1

corn [4] = assay: Test A postemergence; assay type: in vivo, Zea mays; settings: Zea mays, post-emergence, 240 h, 0 to 100 scale where 0 is no effect and 100 is complete control
Summary of the method: as §2

corn [5] = assay: Test C preemergence; assay type: in vivo, Zea mays; settings: Zea mays, pre-emergence
Summary of the method: as §1

wheat, winter = assay: Test C postemergence; assay type: in vivo, Triticum aestivum
Summary of the method: as §1

[6] = 16 g ai/ha, scale 0 to 100 (0 no effect, 100 complete control)
[7] = 62 g ai/ha, scale 0 (no effect) to 100 (complete control)
[8] = 125 g ai/ha, scale 0 (no effect) to 100 (complete control)
[9] = 31 g ai/ha, postemergence, visual rating, scale 0 to 100 (0 no effect, 100 complete control), 13 to 15 days

FC(F)(F)c1cn(-c2ccccc2Oc2ncc(Cl)cn2)nn1 [Compound 166, 5-chloro-2-[2-[4-(trifluoromethyl)-1H-1,2,3-triazol-1-yl]phenoxy]pyrimidine]
pest or weed control at 16 g/ha (giant foxtail [1]; 16 g ai/ha, postemergence, 0 is no effect, 100 is complete control, read-out: Plant response rating (0 to 100), Foxtail, Giant): 5% | pest or weed control at 31 g/ha (giant foxtail [1]; 31 g ai/ha, postemergence, visual rating, scale 0 to 100 (0 no effect, 100 complete control), 13 to 15 days, read-out: Foxtail, Giant plant response rating): 5% | pest or weed control at 125 g/ha (giant foxtail [1]; 125 g ai/ha, postemergence, visual rating, scale 0 to 100 (0 no effect, 100 complete control), read-out: Plant response rating, Foxtail, Giant): 35% | pest or weed control at 62 g/ha (giant foxtail [1]; Postemergence, 62 g ai/ha, scale 0 to 100 (0 no effect, 100 complete control), read-out: Plant response rating, Foxtail, Giant): 10% | pest or weed control at 16 g/ha (blackgrass; 16 g ai/ha, postemergence, 0 is no effect, 100 is complete control, read-out: Plant response rating (0 to 100), Blackgrass): 5% | pest or weed control at 31 g/ha (blackgrass; 31 g ai/ha, postemergence, visual rating, scale 0 to 100 (0 no effect, 100 complete control), 13 to 15 days, read-out: Blackgrass plant response rating): 10% | pest or weed control at 125 g/ha (blackgrass; 125 g ai/ha, postemergence, visual rating, scale 0 to 100 (0 no effect, 100 complete control), read-out: Plant response rating, Blackgrass): 60% | pest or weed control at 62 g/ha (blackgrass; Postemergence, 62 g ai/ha, scale 0 to 100 (0 no effect, 100 complete control), read-out: Plant response rating, Blackgrass): 45% | plant injury at 16 g/ha (corn [2]; 16 g ai/ha, postemergence, 0 is no effect, 100 is complete control, read-out: Plant response rating (0 to 100), Corn): 5% | plant injury at 31 g/ha (corn [2]; 31 g ai/ha, postemergence, visual rating, scale 0 to 100 (0 no effect, 100 complete control), 13 to 15 days, read-out: Corn plant response rating): 5% | Corn plant response rating (crop injury, 0 = no effect, 100 = complete kill) at 125 g/ha (corn [2]; 125 g ai/ha, postemergence, visual rating, scale 0 to 100 (0 no effect, 100 complete control)): 15% | Corn plant response rating (crop injury, 0 = no effect, 100 = complete kill) at 62 g/ha (corn [2]; Postemergence, 62 g ai/ha, scale 0 to 100 (0 no effect, 100 complete control)): 10% | pest or weed control at 125 g/ha (giant foxtail [3]; 125 g ai/ha, read-out: Foxtail, Giant plant response rating): 90% | pest or weed control at 500 g/ha (giant foxtail [3]; 500 g ai/ha, read-out: Plant response rating, Foxtail, Giant): 90% | pest or weed control at 16 g/ha (lambsquarters; [6]): 90% | pest or weed control at 62 g/ha (lambsquarters; [7]): 98% | pest or weed control at 125 g/ha (lambsquarters; [8]): 98% | pest or weed control at 16 g/ha (large (Lg) crabgrass; 16 g ai/ha, preemergence, scale 0 to 100 (0 no effect, 100 complete control), read-out: Crabgrass, Large plant response rating): 100% | pest or weed control at 62 g/ha (large (Lg) crabgrass; 62 g ai/ha, preemergence, scale 0 (no effect) to 100 (complete control), read-out: Crabgrass, Large plant response rating): 100% | pest or weed control at 125 g/ha (large (Lg) crabgrass; 125 g ai/ha, preemergence, scale 0 (no effect) to 100 (complete control), read-out: Crabgrass, Large plant response rating): 100% | pest or weed control at 31 g/ha (large (Lg) crabgrass; Preemergence, 31 g ai/ha, scale 0 to 100, 0 no effect, 100 complete control, read-out: Plant response rating, Crabgrass, Large): 100% | pest or weed control at 16 g/ha (kochia; 16 g ai/ha, postemergence, 0 is no effect, 100 is complete control, read-out: Plant response rating (0 to 100), Kochia): 90% | pest or weed control at 31 g/ha (kochia; 31 g ai/ha, postemergence, visual rating, scale 0 to 100 (0 no effect, 100 complete control), 13 to 15 days, read-out: Kochia plant response rating): 90% | pest or weed control at 125 g/ha (kochia; 125 g ai/ha, postemergence, visual rating, scale 0 to 100 (0 no effect, 100 complete control), read-out: Plant response rating, Kochia): 100% | pest or weed control at 62 g/ha (kochia; Postemergence, 62 g ai/ha, scale 0 to 100 (0 no effect, 100 complete control), read-out: Plant response rating, Kochia): 90% | pest or weed control at 16 g/ha (barnyardgrass; 16 g ai/ha, postemergence, 0 is no effect, 100 is complete control, read-out: Plant response rating (0 to 100), Barnyardgrass): 5% | pest or weed control at 31 g/ha (barnyardgrass; 31 g ai/ha, postemergence, visual rating, scale 0 to 100 (0 no effect, 100 complete control), 13 to 15 days, read-out: Barnyardgrass plant response rating): 10% | pest or weed control at 125 g/ha (barnyardgrass; 125 g ai/ha, postemergence, visual rating, scale 0 to 100 (0 no effect, 100 complete control), read-out: Plant response rating, Barnyardgrass): 15% | pest or weed control at 62 g/ha (barnyardgrass; Postemergence, 62 g ai/ha, scale 0 to 100 (0 no effect, 100 complete control), read-out: Plant response rating, Barnyardgrass): 10% | Nutsedge, Yellow plant response rating (yellow nutsedge; [9]): 5 | pest or weed control at 16 g/ha (yellow nutsedge; Cyperus, post-emergence, 16 g ai/ha, postemergence, 0 is no effect, 100 is complete control, read-out: Plant response rating (0 to 100), Nutsedge, Yellow): 0% | pest or weed control at 125 g/ha (yellow nutsedge; Cyperus, post-emergence, 125 g ai/ha, postemergence, visual rating, scale 0 to 100 (0 no effect, 100 complete control), read-out: Plant response rating, Nutsedge, Yellow): 5% | pest or weed control at 62 g/ha (yellow nutsedge; Cyperus, post-emergence, Postemergence, 62 g ai/ha, scale 0 to 100 (0 no effect, 100 complete control), read-out: Plant response rating, Nutsedge, Yellow): 5% | pest or weed control at 16 g/ha (pigweed; [6]): 100% | pest or weed control at 62 g/ha (pigweed; [7]): 100% | pest or weed control at 125 g/ha (pigweed; [8]): 100% | plant injury at 125 g/ha (corn [4]; 125 g ai/ha, read-out: Corn plant response rating): 50% | Corn plant response rating (crop injury, 0 = no effect, 100 = complete kill) at 500 g/ha (corn [4]; 500 g ai/ha): 60% | plant injury at 16 g/ha (corn [5]; 16 g ai/ha, preemergence, scale 0 to 100 (0 no effect, 100 complete control), read-out: Corn plant response rating): 0% | plant injury at 62 g/ha (corn [5]; 62 g ai/ha, preemergence, scale 0 (no effect) to 100 (complete control), read-out: Corn plant response rating): 40% | plant injury at 125 g/ha (corn [5]; 125 g ai/ha, preemergence, scale 0 (no effect) to 100 (complete control), read-out: Corn plant response rating): 80% | Corn plant response rating (crop injury, 0 = no effect, 100 = complete kill) at 31 g/ha (corn [5]; Preemergence, 31 g ai/ha, scale 0 to 100, 0 no effect, 100 complete control): 25% | Wheat plant response rating (wheat, winter; [9]): 5 | plant injury at 16 g/ha (wheat, winter; Triticum aestivum, post-emergence, 16 g ai/ha, postemergence, 0 is no effect, 100 is complete control, read-out: Plant response rating (0 to 100), Wheat): 5% | plant injury at 125 g/ha (wheat, winter; Triticum aestivum, post-emergence, 125 g ai/ha, postemergence, visual rating, scale 0 to 100 (0 no effect, 100 complete control), read-out: Plant response rating, Wheat): 20% | plant injury at 62 g/ha (wheat, winter; Triticum aestivum, post-emergence, Postemergence, 62 g ai/ha, scale 0 to 100 (0 no effect, 100 complete control), read-out: Plant response rating, Wheat): 35%
